Measured values from patent publication US12042547B2, “Method for producing luminescent particles, luminescent particles, and bioimaging material” (KYULUX, INC., priority 2018, dated 2024).

Assay: Evaluation of luminescence properties (emission maximum, PL quantum yield, emission lifetime)
Type: physicochemical
Details: toluene solution 1.0×10^−5 mol/L, 340-nm excitation
Method: The following examples illustrate the present invention in greater detail. It is to be understood that changes may be made to the below-described materials, processing manner, processing procedure, etc. without departing from the scope of the present invention. Thus, the present invention should not be construed as limited to the following examples. An evaluation of luminescence properties was performed by using an optical spectroscope (PMA-12, manufactured by Hamamatsu Photonics K.K.), and an observation of the shape of particles was performed by using a scanning electron microscope (Inspect S, manufactured by FEI). The average diameter and the polydispersion index of luminescent particles were determined by cumulant analysis using a dynamic light scattering measurement device (DLS-8000DL, manufactured by Otsuka Electronics Co., Ltd.).
The example particles 1, the example particles 2 and the comparative particles 1 were separately dispersed in water to prepare three aqueous dispersions (0.05 μg/L). For each of the aqueous dispersions and a toluene solution of 4CzIPN (1.0×10^−5 mol/L), the emission maximum wavelength, the PL quantum yield (photoluminescence quantum yield) and the emission lifetime τ1, τ2 were measured using 340-nm excitation light.
The resulting luminescent particles contained particles having a maximum diameter of less than 1000 nm. The resulting luminescent particles were dispersed in water to prepare an aqueous dispersion (0.05 μg/L). The aqueous dispersion was subjected to measurement of the emission spectrum with 340-nm excitation light. […] The full width at half maximum (FWHM) was as narrow as 29 nm.

Emission lifetime τ1 (after nitrogen bubbling): 16 ns | Emission lifetime τ2 (after nitrogen bubbling): 4.71 μs | Emission maximum wavelength (after nitrogen bubbling): 505 nm | PL quantum Yield (after nitrogen bubbling): 83% | Emission lifetime τ1 (before nitrogen bubbling): 11 ns | Emission lifetime τ2 (before nitrogen bubbling): 0.31 μs | Emission maximum wavelength (before nitrogen bubbling): 505 nm | PL quantum Yield (before nitrogen bubbling): 21%
SMILES: N#Cc1c(-n2c3ccccc3c3ccccc32)c(C#N)c(-n2c3ccccc3c3ccccc32)c(-n2c3ccccc3c3ccccc32)c1-n1c2ccccc2c2ccccc21 [4CzIPN]
